In the test the target is T1, laminin/nidogen interaction (laminin P1, recombinantly produced human nidogen) (Homo sapiens, UniProt P14543).
T1 construct: made in house; host or cells: HEK-293
T1 sequence (P14543 29-1247): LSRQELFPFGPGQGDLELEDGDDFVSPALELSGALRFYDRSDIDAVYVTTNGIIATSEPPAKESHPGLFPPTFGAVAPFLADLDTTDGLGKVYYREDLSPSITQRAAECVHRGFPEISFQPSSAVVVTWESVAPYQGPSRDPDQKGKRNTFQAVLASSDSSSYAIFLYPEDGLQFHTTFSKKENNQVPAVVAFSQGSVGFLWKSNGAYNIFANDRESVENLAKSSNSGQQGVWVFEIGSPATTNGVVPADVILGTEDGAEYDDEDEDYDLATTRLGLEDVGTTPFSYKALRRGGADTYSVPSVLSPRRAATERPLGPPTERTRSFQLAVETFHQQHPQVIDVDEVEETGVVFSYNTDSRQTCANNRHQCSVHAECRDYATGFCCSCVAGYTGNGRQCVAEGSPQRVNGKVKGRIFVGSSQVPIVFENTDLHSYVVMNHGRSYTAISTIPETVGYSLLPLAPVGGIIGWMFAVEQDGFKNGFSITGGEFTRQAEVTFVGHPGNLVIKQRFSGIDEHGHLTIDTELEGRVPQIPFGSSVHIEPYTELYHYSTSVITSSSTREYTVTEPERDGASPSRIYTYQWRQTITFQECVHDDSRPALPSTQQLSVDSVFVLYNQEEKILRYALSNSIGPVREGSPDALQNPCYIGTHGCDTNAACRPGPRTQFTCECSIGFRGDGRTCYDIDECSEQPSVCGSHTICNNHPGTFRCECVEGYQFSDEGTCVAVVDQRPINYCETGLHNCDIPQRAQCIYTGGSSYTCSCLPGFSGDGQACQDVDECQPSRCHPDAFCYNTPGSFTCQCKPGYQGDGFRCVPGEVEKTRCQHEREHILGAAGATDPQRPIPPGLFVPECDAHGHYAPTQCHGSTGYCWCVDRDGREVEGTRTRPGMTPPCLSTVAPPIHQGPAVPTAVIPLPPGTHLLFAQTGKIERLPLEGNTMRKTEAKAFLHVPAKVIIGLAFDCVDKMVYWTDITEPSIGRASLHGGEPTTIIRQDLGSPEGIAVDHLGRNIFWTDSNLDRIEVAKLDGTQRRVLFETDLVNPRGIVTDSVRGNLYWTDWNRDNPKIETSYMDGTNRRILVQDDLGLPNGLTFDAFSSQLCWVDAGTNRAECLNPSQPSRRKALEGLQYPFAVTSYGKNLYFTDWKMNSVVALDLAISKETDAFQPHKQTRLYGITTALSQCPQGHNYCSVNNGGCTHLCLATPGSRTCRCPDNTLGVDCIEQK
Kind of test: HTS screening assay (time-resolved fluorescence), inhibition of laminin/nidogen binding. Particulars: read-out: IC50. The protocol: 5) The compound stocks were preincubated with nidogen (10 μl compound stock to 90 μl nidogen solution) and the assay was performed as described in the attached protocol, yielding a final screening concentration of 2.7 μM per compound. The isolation of laminin P1 from human placenta, human nidogen from transfected HEK-293 cells and mouse laminin γ1III 3-5 from HEK-293 cells is described in WO 98/31709. 3.1.1. HTS screening assay (highly sensitive assay variant): Time-Resolved Fluorescence Assay Coating of test tubes Microtiter plates (for example FluoroNunc®) were coated with 75 μl of a 0.1 μg/ml solution of laminin P1 (in 0.159 g of Na2CO3, 0.293 g of NaHCO3, 0.02 g of NaN3/liter, pH 9.2) at room temperature for 1 hour. The solution was then tipped off, and free binding sites were blocked by incubation with 0.5% BSA (in 7.9 g of NaCl, 1.2 g of Na2HPO4, 0.31 g of KCl, 0.23 g of NaH2PO4, 0.04% Tween 20/liter, pH 7.2) at room temperature for 0.5 hour. Completion of the blocking reaction was followed by decantation of the solution and washing once with 250 μl of washing buffer (PBS/0.04% Tween). Sequential inhibition In parallel with the coating, a preincubation of 85-100 μl of a 0.25 nM nidogen solution (recombinantly produced human nidogen) with inhibitor or standard was carried out in a separate reaction vessel (1 hour at room temperature in 7.9 g of NaCl, 1.2 g of Na2HPO4, 0.31 g of KCl, 0.23 g of NaH2PO4, 0.04% Tween 20/liter, 0.5% BSA, pH 7.2). 75 μl of the preincubation (nidogen+inhibitor or standard) were transferred into the coated wells of the microtiter plate and incubated at room temperature for 1 hour. This was followed by washing twice with PBS/0.04% Tween. Detection of the bound nidogen took place by incubation (at room temperature) for 1 hour with 75 μl of a specific antibody preparation obtained from yolks of eggs from a chicken immunized with human nidogen. The IgY fraction was used in a dilution of 1:500 in PBS/0.04% Tween. The complex of nidogen and specifically bound antibodies was, after washing twice with PBS/0.04% Tween, detected by adding anti-chicken IgY-biotin (75 μl of a 1:2500 dilution; Promega, Madison, Wis. 53711, 608-274-4330). An incubation time of 1 hour and washing twice with PBS/0.04% Tween were followed for this purpose by incubation with streptavidin-europium (Wallac; 1 hour at room temperature) and washing twice with PBS/0.04% Tween. It was finally possible, after adding 100 μl of enhancement solution (Wallac) and shaking for 5 minutes, to measure a fluorescence signal in a Victor multilabel counter using the europium protocol. The relation between the amount, of bound nidogen in the solutions with inhibitor and that of nidogen without added inhibitor was found.

Setting [1] is: results table 1.3, synthesized compounds 1 to 43.
Setting [2] is: hit structures recovered from the pentamer library screening.

Read-outs that look alike come from different tables or passages of the source. Starred links: 1 amine or outer side, 2 acyl side, 3 side chain; linkers in the order of their positions; H or OH if unused. Non-standard residues stand in square brackets, D forms with d. Residues, ends and D or L forms follow the SMILES beside them. *: point of attachment. X2 = O=C([C@@H]1[C@H](c2ccccc2)CCN1[*:1])[*:2]; Pro(3R-Ph) = O=C(O)[C@H]1NCC[C@@H]1c1ccccc1; Dip = N[C@H](C(=O)O)C(c1ccccc1)c1ccccc1; 1Nal = N[C@@H](Cc1cccc2ccccc12)C(=O)O; 2Nal = N[C@@H](Cc1ccc2ccccc2c1)C(=O)O; NH(3-hydroxypropyl) = OCCCN*; Suc = O=C(CCC(=O)[*:2])[*:1]; Tle = CC(C)(C)[C@H](N)C(=O)O; X1 = CC(=O)c1ccccc1C(=O)*; Bn = c1ccc(C*)cc1

As to `CC[C@H](C)[C@H](NC(=O)[C@@H](N)CC(N)=O)C(=O)N[C@@H](CC(=O)O)C(=O)N1CCC[C@H]1C(=O)N[C@@H](CC(N)=O)C(=O)N[C@@H](C)C(=O)N[C@H](C(=O)NCC(=O)NCCCO)C(C)C` [Compound 1, L-Asparaginyl-L-isoleucyl-L-aspartyl-L-prolyl-L-asparaginyl-L-alanyl-L-valyl-glycine-3-hydroxypropylamide, reference compound] (H-NIDPNAVG-{NH(3-hydroxypropyl)}), under setting [1], the IC50 (commonly the midpoint of a concentration-inhibition curve) was determined as 3900 nM.
As for `CC(C)[C@H](NC(=O)[C@H](C)NC(=O)[C@H](CC(N)=O)NC(=O)[C@H](Cc1cccc2ccccc12)NC(=O)[C@@H](N)CC(=O)O)C(=O)NCC(=O)NCCCO` [Compound 9, L-Aspartyl-L-3-(1-naphthyl)alanyl-L-asparaginyl-L-alanyl-L-valyl-glycine-3-hydroxypropylamide] (H-D[1Nal]NAVG-{NH(3-hydroxypropyl)}), the IC50 under setting [1] is 8250 nM.
On the same count and under the same terms, under `CC(=O)c1ccccc1C(=O)N[C@@H](Cc1ccc2ccccc2c1)C(=O)N[C@@H](CC(N)=O)C(=O)N[C@@H](CO)C(=O)N[C@H](C(=O)NCC(=O)NCCCO)C(C)C` [Compound 23] (X1-[2Nal]NSVG-{NH(3-hydroxypropyl)}) stands 1490 nM.
Turning to `CC(C)[C@@H](CO)NC(=O)[C@H](C)NC(=O)[C@H](CC(N)=O)NC(=O)[C@H](Cc1ccc2ccccc2c1)NC(=O)CCC(=O)O` [Compound 38, Succinyl-L-3-(2-Naphthyl)alanyl-L-asparaginyl-L-alaninyl-L-valinol], the IC50 under setting [1] is 260 nM.
`CC(C)[C@H](NC(=O)[C@H](CO)NC(=O)[C@H](CC(N)=O)NC(=O)[C@@H]1[C@@H](c2ccccc2)CCN1C(=O)[C@@H](N)CC(=O)O)C(=O)NCC(=O)NCCCO` [Compound 17, L-Aspartyl-L-(3R)-phenylprolyl-L-asparaginyl-L-seryl-L-valyl-glycine-3-hydroxypropylamide] (H-D[Pro(3R-Ph)]NSVG-{NH(3-hydroxypropyl)}): under setting [1], the 50% inhibitory concentration (IC50) is 2270 nM.
As for `CC(C)[C@H](NC(=O)[C@H](C)NC(=O)[C@H](CC(N)=O)NC(=O)[C@H](Cc1ccc(OCc2ccccc2)cc1)NC(=O)CCC(=O)O)C(N)=O` [Compound 35, Succinyl-L-O-benzyl-tyrosyl-L-asparaginyl-L-alanyl-L-valine-amide] (Suc-Y(Bn)NAV-NH2), under setting [1], the half-maximal inhibitory concentration (IC50) is 5020 nM.
`CC(C)[C@H](NC(=O)[C@H](CC(=O)O)NC(=O)[C@H](CC(N)=O)NC(=O)[C@H](Cc1ccc2ccccc2c1)NC(=O)[C@@H](N)CC(=O)O)C(=O)NCC(=O)NCCCO` [Compound 3, L-Aspartyl-L-3-(2-naphthyl)alanyl-L-asparaginyl-L-aspartyl-L-valyl-glycine-3-hydroxypropylamide] (H-D[2Nal]NDVG-{NH(3-hydroxypropyl)}): the concentration for half-maximal inhibition (IC50) reads like this: under setting [2], 430 nM; under setting [1], 510 nM.
`CC(C)[C@H](NC(=O)[C@H](CO)NC(=O)[C@H](CC(N)=O)NC(=O)[C@@H]1[C@H](c2ccccc2)CCN1C(=O)[C@@H](N)CC(=O)O)C(=O)NCC(=O)NCCCO` [Compound 16, L-Aspartyl-L-(3S)-phenylprolyl-L-asparaginyl-L-seryl-L-valyl-glycine-3-hydroxypropylamide] (H-D[X2]NSVG-{NH(3-hydroxypropyl)}): the IC50 under setting [1] stood at 4280 nM.
For `CC(C)[C@H](NC(=O)[C@H](C)NC(=O)[C@H](CC(N)=O)NC(=O)[C@H](Cc1ccc(O)cc1)NC(=O)[C@@H](N)CC(=O)O)C(=O)NCC(=O)NCCCO` [Compound 12, L-Aspartyl-L-tyrosyl-L-asparaginyl-L-alanyl-L-valyl-glycine-3-hydroxypropylamide] (H-DYNAVG-{NH(3-hydroxypropyl)}), the IC50 under setting [1] was 3790 nM.
Still for that read-out and setting: under `CC(C)[C@H](NC(=O)[C@H](C)NC(=O)[C@H](CC(N)=O)NC(=O)[C@H](Cc1ccc2ccccc2c1)NC(=O)CCC(=O)O)C(=O)N(C)C` [Compound 42, Succinyl-L-3-(2-Naphthyl)alanyl-L-asparaginyl-L-alanyl-L-valine-dimethylamide] (Suc-[2Nal]NAV-NMe2) stands 240 nM; under `CC(C)[C@H](NC(=O)[C@H](C)NC(=O)[C@H](CC(N)=O)NC(=O)[C@@H](NC(=O)[C@@H](N)CC(=O)O)C(c1ccccc1)c1ccccc1)C(=O)NCC(=O)NCCCO` [Compound 15, L-Aspartyl-L-(3,3-diphenyl)alanyl-L-asparaginyl-L-alanyl-L-valyl-glycine-3-hydroxypropylamide] (H-D[Dip]NAVG-{NH(3-hydroxypropyl)}), 26300 nM; under `CC(C)[C@H](NC(=O)CNC(=O)[C@H](CC(N)=O)NC(=O)[C@H](Cc1ccc2ccccc2c1)NC(=O)CCC(=O)O)C(N)=O` [Compound 33, Succinyl-L-3-(2-naphthyl)alanyl-L-asparaginyl-glycinyl-L-valine-amide] (Suc-[2Nal]NGV-NH2), 720 nM.
Turning to `CC(C)[C@H](NC(=O)[C@H](C)NC(=O)[C@H](CC(N)=O)NC(=O)[C@H](Cc1ccc2ccccc2c1)NC(=O)[C@@H](N)CC(=O)O)C(=O)NCC(=O)NCCCO` [Compound 5, L-Aspartyl-L-3-(2-naphthyl)alanyl-L-asparaginyl-L-alanyl-L-valyl-glycine-3-hydroxypropylamide] (H-D[2Nal]NAVG-{NH(3-hydroxypropyl)}), the IC50 runs as follows: under setting [2], 370 nM; under setting [1], 750 nM.
Consider `CC[C@H](C)[C@H](NC(=O)[C@H](C)NC(=O)[C@H](CC(N)=O)NC(=O)[C@H](Cc1ccc2ccccc2c1)NC(=O)[C@@H](N)CC(=O)O)C(=O)NCC(=O)NCCCO` [Compound 8, L-Aspartyl-L-3-(2-naphthyl)alanyl-L-asparaginyl-L-alanyl-L-isoleucyl-glycine-3-hydroxypropylamide] (H-D[2Nal]NAIG-{NH(3-hydroxypropyl)}), for which the IC50 reads like this: under setting [2], 470 nM; under setting [1], 700 nM.
Regarding `C[C@H](NC(=O)[C@H](CC(N)=O)NC(=O)[C@H](Cc1ccc2ccccc2c1)NC(=O)CCC(=O)O)C(=O)N[C@H](C(N)=O)C(C)(C)C` [Compound 32, Succinyl-L-3-(2-naphthyl)alanyl-L-asparaginyl-L-alanyl-L-2-tert.butyl-glycine-amide] (Suc-[2Nal]NA[Tle]-NH2), under setting [1], the IC50 came to 170 nM.

For the origin of these results see patent US6365572B1, “Low molecular weight peptide derivatives as inhibitors of the laminin/nidogen interaction” (Aventis Pharma Deutschland GmbH, priority 1999, dated 2002).
